Tested on: anticorps anti-nef
Test: ELISA for detection of anti-nef antibodies on coated peptides or nef
Format: binding, humain
Conditions: for nombre de sérums anti-nef positifs ayant réagi: out of 31 anti-nef positive sera; for intensité de l'immunoréactivité (OD), Serum 1: Serum 1, anti-nef positive; for intensité de l'immunoréactivité (OD), Serum 1 / intensité de l'immunoréactivité (OD), Serum 2 / intensité de l'immunoréactivité (OD), Serum 3 / intensité de l'immunoréactivité (OD), Serum 4 / intensité de l'immunoréactivité (OD), Serum 5 / intensité de l'immunoréactivité (OD), Serum 6 / intensité de l'immunoréactivité (OD), Serum 7 / intensité de l'immunoréactivité (OD), Serum 8 / intensité de l'immunoréactivité (OD), Serum 9 / intensité de l'immunoréactivité (OD), Serum 10 / intensité de l'immunoréactivité (OD), Serum 11 / intensité de l'immunoréactivité (OD), Serum 12 / intensité de l'immunoréactivité (OD), Serum 13 / intensité de l'immunoréactivité (OD), Serum 14 / intensité de l'immunoréactivité (OD), Serum 15 / intensité de l'immunoréactivité (OD), Serum 16 / intensité de l'immunoréactivité (OD), Serum 17 / intensité de l'immunoréactivité (OD), Serum 18 / intensité de l'immunoréactivité (OD), Serum 19 / intensité de l'immunoréactivité (OD), Serum 20 / intensité de l'immunoréactivité (OD), Serum 21 / intensité de l'immunoréactivité (OD), Serum 22 / intensité de l'immunoréactivité (OD), Serum 23 / intensité de l'immunoréactivité (OD), Serum 24 / intensité de l'immunoréactivité (OD), Serum 25 / intensité de l'immunoréactivité (OD), Serum 26 / intensité de l'immunoréactivité (OD), Serum 27 / intensité de l'immunoréactivité (OD), Serum 28 / intensité de l'immunoréactivité (OD), Serum 29 / intensité de l'immunoréactivité (OD), Serum 30 / intensité de l'immunoréactivité (OD), Serum 31 / intensité de l'immunoréactivité (OD), Serum 32 / intensité de l'immunoréactivité (OD), Serum 33: 500 ng coated per well; for intensité de l'immunoréactivité (OD), Serum 2: Serum 2, anti-nef positive; for intensité de l'immunoréactivité (OD), Serum 3: Serum 3, anti-nef positive; for intensité de l'immunoréactivité (OD), Serum 4: Serum 4, anti-nef positive; for intensité de l'immunoréactivité (OD), Serum 5: Serum 5, anti-nef positive; for intensité de l'immunoréactivité (OD), Serum 6: Serum 6, anti-nef positive; for intensité de l'immunoréactivité (OD), Serum 7: Serum 7, anti-nef positive; for intensité de l'immunoréactivité (OD), Serum 8: Serum 8, anti-nef positive; for intensité de l'immunoréactivité (OD), Serum 9: Serum 9, anti-nef positive; for intensité de l'immunoréactivité (OD), Serum 10: Serum 10, anti-nef positive; for intensité de l'immunoréactivité (OD), Serum 11: Serum 11, anti-nef positive; for intensité de l'immunoréactivité (OD), Serum 12: Serum 12, anti-nef positive; for intensité de l'immunoréactivité (OD), Serum 13: Serum 13, anti-nef positive; for intensité de l'immunoréactivité (OD), Serum 14: Serum 14, anti-nef positive; for intensité de l'immunoréactivité (OD), Serum 15: Serum 15, anti-nef positive; for intensité de l'immunoréactivité (OD), Serum 16: Serum 16, anti-nef positive; for intensité de l'immunoréactivité (OD), Serum 17: Serum 17, anti-nef positive; for intensité de l'immunoréactivité (OD), Serum 18: Serum 18, anti-nef positive; for intensité de l'immunoréactivité (OD), Serum 19: Serum 19, anti-nef positive; for intensité de l'immunoréactivité (OD), Serum 20: Serum 20, anti-nef positive; for intensité de l'immunoréactivité (OD), Serum 21: Serum 21, anti-nef positive; for intensité de l'immunoréactivité (OD), Serum 22: Serum 22, anti-nef positive; for intensité de l'immunoréactivité (OD), Serum 23: Serum 23, anti-nef positive; for intensité de l'immunoréactivité (OD), Serum 24: Serum 24, anti-nef positive; for intensité de l'immunoréactivité (OD), Serum 25: Serum 25, anti-nef positive; for intensité de l'immunoréactivité (OD), Serum 26: Serum 26, anti-nef positive; for intensité de l'immunoréactivité (OD), Serum 27: Serum 27, anti-nef positive; for intensité de l'immunoréactivité (OD), Serum 28: Serum 28, anti-nef positive; for intensité de l'immunoréactivité (OD), Serum 29: Serum 29, anti-nef positive; for intensité de l'immunoréactivité (OD), Serum 30: Serum 30, anti-nef positive; for intensité de l'immunoréactivité (OD), Serum 31: Serum 31, anti-nef positive; for intensité de l'immunoréactivité (OD), Serum 32: Serum 32, anti-nef negative control serum; for intensité de l'immunoréactivité (OD), Serum 33: Serum 33, anti-nef negative control serum
Method: Des plaques de microtitration à 96 puits ont été recouvertes une nuit avec 500 ng de protéine nef bactérienne, à 37°C ou avec 500 ng de peptides synthétiques par puits dans 50µl de PBS à pH 7,4. Après saturation avec 400 µl de PBS pH 7,4, contenant 5% de caséine, durant 1 heure à 37°C et lavage avec PBS à pH 7,4, 0,5% de BSA, 0,01% tween, 50 µl de sérums à différentes dilutions ont été ajoutés pendant 2 heures à 37°C. Après le rinçage, 50µl de complexes d'IgG de souris anti-humaine-(H + L)-peroxydase 1:1000 ont été incubés pendant 1 heure à 37°C. Après un nouveau rinçage, 100µl de OPD ont été ajoutés pendant 30mn à température ambiante dans l'obscurité. La réaction de l'enzyme a été arrêtée par addition de 50µl d'acide sulfurique 4N et la densité optique des plaques a été lue à 492 nm/620 nm. Les plaques recouvertes avec la caséine ont été utilisées comme contrôle négatif.
En vue d'étudier la possibilité d'utiliser des peptides synthétiques en tant qu'antigènes pour la détection d'anticorps anti-nef chez des patients infectés par HIV, 8 peptides synthétiques couvrant la totalité de la séquence de la protéine nef de HIV-1 (figure 4) ont été utilisés dans un test ELISA avec 31 sérums anti-nef positifs et 2 sérums anti-nef négatifs utilisés comme contrôle. Les recombinants nef ont été utilisés comme contrôle positif dans les tests ELISA et la caséine a été utilisée comme contrôle négatif. Les résultats de ces expériences sont donnés dans le tableau 4 qui illustre l'essai suivant: Essai ELISA sur 31 sérums anti-nef-positifs et 2 sérums anti-nef- négatifs, soit pré-recouverts avec des peptides synthétiques (PF 11 à PF 18), soit en utilisant nef, la caséine ou un mélange de peptides PF 12 et PF 17. Les sérums ont été sélectionnés au hasard parmi des sérums anti-nef positifs et anti-nefs négatifs testés par la méthode RIA en utilisant ¹²⁵I nef. L'intensité de l'immunoradioactivité est notée "-" pour une densité optique (OD) inférieure à 0,2; "+" pour OD = 0,2 à 0,4; "++" pour OD = 0,4 à 0,8 et "+++" pour OD = 0,8 à 2,0.

XCGYFPDWQNYTPGPGVRYPLTFGWCYKLVPVEPDKVEEANKGENTSLL HPVZ [PF15, protéine F HIV-1, séquence 118-167]
nombre de sérums anti-nef positifs ayant réagi (ELISA): 4
intensité de l'immunoréactivité (OD), Serum 1: - (pour une densité optique (OD) inférieure à 0,2)
intensité de l'immunoréactivité (OD), Serum 2: - (pour une densité optique (OD) inférieure à 0,2)
intensité de l'immunoréactivité (OD), Serum 3: - (pour une densité optique (OD) inférieure à 0,2)
intensité de l'immunoréactivité (OD), Serum 4: - (pour une densité optique (OD) inférieure à 0,2)
intensité de l'immunoréactivité (OD), Serum 5: + (pour OD = 0,2 à 0,4)
intensité de l'immunoréactivité (OD), Serum 6: + (pour OD = 0,2 à 0,4)
intensité de l'immunoréactivité (OD), Serum 7: - (pour une densité optique (OD) inférieure à 0,2)
intensité de l'immunoréactivité (OD), Serum 8: - (pour une densité optique (OD) inférieure à 0,2)
intensité de l'immunoréactivité (OD), Serum 9: - (pour une densité optique (OD) inférieure à 0,2)
intensité de l'immunoréactivité (OD), Serum 10: - (pour une densité optique (OD) inférieure à 0,2)
intensité de l'immunoréactivité (OD), Serum 11: - (pour une densité optique (OD) inférieure à 0,2)
intensité de l'immunoréactivité (OD), Serum 12: - (pour une densité optique (OD) inférieure à 0,2)
intensité de l'immunoréactivité (OD), Serum 13: - (pour une densité optique (OD) inférieure à 0,2)
intensité de l'immunoréactivité (OD), Serum 14: - (pour une densité optique (OD) inférieure à 0,2)
intensité de l'immunoréactivité (OD), Serum 15: - (pour une densité optique (OD) inférieure à 0,2)
intensité de l'immunoréactivité (OD), Serum 16: - (pour une densité optique (OD) inférieure à 0,2)
intensité de l'immunoréactivité (OD), Serum 17: - (pour une densité optique (OD) inférieure à 0,2)
intensité de l'immunoréactivité (OD), Serum 18: - (pour une densité optique (OD) inférieure à 0,2)
intensité de l'immunoréactivité (OD), Serum 19: ++ (pour OD = 0,4 à 0,8)
intensité de l'immunoréactivité (OD), Serum 20: - (pour une densité optique (OD) inférieure à 0,2)
intensité de l'immunoréactivité (OD), Serum 21: - (pour une densité optique (OD) inférieure à 0,2)
intensité de l'immunoréactivité (OD), Serum 22: ++ (pour OD = 0,4 à 0,8)
intensité de l'immunoréactivité (OD), Serum 23: - (pour une densité optique (OD) inférieure à 0,2)
intensité de l'immunoréactivité (OD), Serum 24: - (pour une densité optique (OD) inférieure à 0,2)
intensité de l'immunoréactivité (OD), Serum 25: - (pour une densité optique (OD) inférieure à 0,2)
intensité de l'immunoréactivité (OD), Serum 26: - (pour une densité optique (OD) inférieure à 0,2)
intensité de l'immunoréactivité (OD), Serum 27: - (pour une densité optique (OD) inférieure à 0,2)
intensité de l'immunoréactivité (OD), Serum 28: - (pour une densité optique (OD) inférieure à 0,2)
intensité de l'immunoréactivité (OD), Serum 29: - (pour une densité optique (OD) inférieure à 0,2)
intensité de l'immunoréactivité (OD), Serum 30: - (pour une densité optique (OD) inférieure à 0,2)
intensité de l'immunoréactivité (OD), Serum 31: - (pour une densité optique (OD) inférieure à 0,2)
intensité de l'immunoréactivité (OD), Serum 32: - (pour une densité optique (OD) inférieure à 0,2)
intensité de l'immunoréactivité (OD), Serum 33: - (pour une densité optique (OD) inférieure à 0,2)

XCKGGLEGLIHSQRRQDILDLWIYHTQGYFPDZ [PF18]
part des sérums anti-nef positifs avec immunoréactivité significative (ELISA, 31 anti-nef positive sera): 1/3
nombre de sérums anti-nef positifs ayant réagi (ELISA): 10
intensité de l'immunoréactivité (OD), Serum 1: - (pour une densité optique (OD) inférieure à 0,2)
intensité de l'immunoréactivité (OD), Serum 2: - (pour une densité optique (OD) inférieure à 0,2)
intensité de l'immunoréactivité (OD), Serum 3: - (pour une densité optique (OD) inférieure à 0,2)
intensité de l'immunoréactivité (OD), Serum 4: - (pour une densité optique (OD) inférieure à 0,2)
intensité de l'immunoréactivité (OD), Serum 5: + (pour OD = 0,2 à 0,4)
intensité de l'immunoréactivité (OD), Serum 6: + (pour OD = 0,2 à 0,4)
intensité de l'immunoréactivité (OD), Serum 7: - (pour une densité optique (OD) inférieure à 0,2)
intensité de l'immunoréactivité (OD), Serum 8: - (pour une densité optique (OD) inférieure à 0,2)
intensité de l'immunoréactivité (OD), Serum 9: - (pour une densité optique (OD) inférieure à 0,2)
intensité de l'immunoréactivité (OD), Serum 10: - (pour une densité optique (OD) inférieure à 0,2)
intensité de l'immunoréactivité (OD), Serum 11: - (pour une densité optique (OD) inférieure à 0,2)
intensité de l'immunoréactivité (OD), Serum 12: - (pour une densité optique (OD) inférieure à 0,2)
intensité de l'immunoréactivité (OD), Serum 13: - (pour une densité optique (OD) inférieure à 0,2)
intensité de l'immunoréactivité (OD), Serum 14: - (pour une densité optique (OD) inférieure à 0,2)
intensité de l'immunoréactivité (OD), Serum 15: - (pour une densité optique (OD) inférieure à 0,2)
intensité de l'immunoréactivité (OD), Serum 16: - (pour une densité optique (OD) inférieure à 0,2)
intensité de l'immunoréactivité (OD), Serum 17: - (pour une densité optique (OD) inférieure à 0,2)
intensité de l'immunoréactivité (OD), Serum 18: ++ (pour OD = 0,4 à 0,8)
intensité de l'immunoréactivité (OD), Serum 19: + (pour OD = 0,2 à 0,4)
intensité de l'immunoréactivité (OD), Serum 20: + (pour OD = 0,2 à 0,4)
intensité de l'immunoréactivité (OD), Serum 21: +++ (pour OD = 0,8 à 2,0)
intensité de l'immunoréactivité (OD), Serum 22: +++ (pour OD = 0,8 à 2,0)
intensité de l'immunoréactivité (OD), Serum 23: - (pour une densité optique (OD) inférieure à 0,2)
intensité de l'immunoréactivité (OD), Serum 24: ++ (pour OD = 0,4 à 0,8)
intensité de l'immunoréactivité (OD), Serum 25: + (pour OD = 0,2 à 0,4)
intensité de l'immunoréactivité (OD), Serum 26: - (pour une densité optique (OD) inférieure à 0,2)
intensité de l'immunoréactivité (OD), Serum 27: - (pour une densité optique (OD) inférieure à 0,2)
intensité de l'immunoréactivité (OD), Serum 28: - (pour une densité optique (OD) inférieure à 0,2)
intensité de l'immunoréactivité (OD), Serum 29: - (pour une densité optique (OD) inférieure à 0,2)
intensité de l'immunoréactivité (OD), Serum 30: +++ (pour OD = 0,8 à 2,0)
intensité de l'immunoréactivité (OD), Serum 31: - (pour une densité optique (OD) inférieure à 0,2)
intensité de l'immunoréactivité (OD), Serum 32: - (pour une densité optique (OD) inférieure à 0,2)
intensité de l'immunoréactivité (OD), Serum 33: - (pour une densité optique (OD) inférieure à 0,2)
